From patent US5326788A, “Biological fluid purification system” (priority 1992, dated 1994)

Legend:
[1] = test system: HIV-2; assay: Syncytia assay, HUT78 cells infected with ROD-2 isolate co-cultured with H9 cells; assay type: cell-based; details: 24 hours
Description: (§1) In order to assess the effects of Hy and Ps on the ability of HIV to form syncytia, the following experiments were performed. For the analysis of HIV-1, an entry syncytia assay was performed by co-culturing H9 cells (described in Popovic, M. et al. Science 224: 497-500, 1984) infected with the IIIb isolate of HIV with uninfected Supt-1 cells (Walker, B. D. et al. Proc. Nat. Acad. Sci. (USA) 84: 8120-8124, 1987) as the target cell. HIV-2 was tested using HUT78 cells (obtained from the National Institute of Health by reference to Depository Catalog, Reagent Program, Bethesda, Md.) infected with the ROD-2 isolate of HIV-2 co-cultured with uninfected H9 target cells. The infected cells were plated in 96 well plates (10^4 cells per well in RPM1 1640 medium with 10% fetal calf serum) and incubated with or without dilutions of Ps or Hy for 30 minutes at 37° C. 1×10^5 target cells were then added per well and the number of syncytia were quantitatively and qualitatively determined after 24 hours.

[2] = test system: HIV; assay: Inhibition of HIV induced syncytia formation / cell fusion (summary over the assays); assay type: cell-based, Human Immunodeficiency Virus (HIV)
Description: as §1

[3] = test system: purified reverse transcriptase from avian myeloblastosis virus; assay: Direct incubation with purified reverse transcriptase; assay type: biochemical
Description: (§2) In FIG. 1, open squares represent hypericin-treated and pluses represent pseudohypericin treated HIV. […] Inactivation of the reverse transcriptase activity of the virions was not a result of a direct inhibition of reverse transcriptase activity per se, as incubation of either compound directly with purified reverse transcriptase from either avian myeloblastosis virus or murine leukemia virus had no effect on enzyme activity. Furthermore, aliquots of HIV derived from these H9 cell cultures lost the ability to replicate in culture when exposed to as little as 0.77 micrograms/ml of hypericin.

[4] = molecular target: purified reverse transcriptase from murine leukemia virus (Moloney murine leukemia virus isolate Shinnick, UniProt P03355); assay: as above; assay type: biochemical
Description: as §2

[5] = test system: HIV; assay: Inactivation of HIV from blood of sero-positive patient, reverse transcriptase activity after culture with H9 cells; assay type: cell-based, Human Immunodeficiency Virus (HIV); details: Human immunodeficiency virus 1, H9, 1 h, read-out: concentration giving complete inactivation of HIV (no reverse transcriptase detected), 1 hour at 37° C., H9 cells
Description: In order to show the effectiveness of the compounds of the present invention in the inactivation of HIV, blood was obtained from an HIV sero-positive patient and treated with hypericin and pseudohypericin at various concentrations for 1 hour at 37° C. and incubated with uninfected H9 cells in culture. Thereafter, reverse transcriptase enzymatic activity was determined as disclosed in U.S. patent application Ser. Nos. 084,008 and 172,064 filed Aug. 10, 1987 and Mar. 23, 1988, respectively.
as §2

[6] = test system: HIV-1 env; assay: Syncytia assay, cell line expressing only envelope proteins of HIV-1 IIIb with Supt-1 cells; assay type: cell-based; details: 24 hours
Description: as §1
Also tested in a syncytia assay was a constructed cell line expressing only the envelope proteins of HIV-1 type IIIb isolate (Walker, B. D. et al., supra). These cells, designated HIV-1 env in Table 6, were treated with the indicated concentrations of Ps or Hy and incubated with uninfected Supt-1 target cells as above.

[7] = test system: HIV-1; assay: Syncytia assay, H9 cells infected with IIIb isolate of HIV co-cultured with Supt-1 cells; assay type: cell-based; details: 24 hours
Description: as §1

[8] = test system: HIV; details: cited from earlier work

For Cc1cc(O)c2c(=O)c3c(O)cc(O)c4c5c(O)cc(O)c6c(=O)c7c(O)cc(CO)c8c1c2c(c34)c(c65)c78 [pseudohypericin], the “syncytia score (number 0-4, size S/M/L)” value ([1]; 12 nanograms) was 4 L, the “syncytia score (number 0-4, size S/M/L)” value ([1]; 24 nanograms) was 4 L and the “syncytia score (number 0-4, size S/M/L)” value ([1]; 47 nanograms) was 4 L. For the same compound, the “syncytia score (number 0-4, size S/M/L)” value ([1]; 94 nanograms) was 4 L, the “syncytia score (number 0-4, size S/M/L)” value ([1]; 188 nanograms) was 4 L and the “syncytia score (number 0-4, size S/M/L)” value ([1]; 375 nanograms) was 4 L. The “syncytia score (number 0-4, size S/M/L)” value ([1]; 750 nanograms) was 3 M, the “syncytia score (number 0-4, size S/M/L)” value ([1]; 1500 nanograms) was 2S and the “syncytia score (number 0-4, size S/M/L)” value ([1]; 3000 nanograms) was 2S. The “inhibition of cell fusion” value ([2]; compared with hypericin) was “effective but at substantially higher”, the “dose needed for similar inhibition relative to hypericin” value ([2]; syncytia formation) was 20-60 fold and the “effect on enzyme activity of purified reverse transcriptase” value [3] was “no effect”. The “effect on enzyme activity of purified reverse transcriptase” value [4] was “no effect”, the IC100 [5] was over 100 µg/mL and the “syncytia score (number 0-4, size S/M/L)” value ([6]; 12 nanograms) was 4 L. The “syncytia score (number 0-4, size S/M/L)” value ([6]; 24 nanograms) was 4 L, the “syncytia score (number 0-4, size S/M/L)” value ([6]; 47 nanograms) was 4 L and the “syncytia score (number 0-4, size S/M/L)” value ([6]; 94 nanograms) was 4 L. The “syncytia score (number 0-4, size S/M/L)” value ([6]; 188 nanograms) was 4 L, the “syncytia score (number 0-4, size S/M/L)” value ([6]; 375 nanograms) was 4 L and the “syncytia score (number 0-4, size S/M/L)” value ([6]; 750 nanograms) was 4 L. The “syncytia score (number 0-4, size S/M/L)” value ([6]; 1500 nanograms) was 3 L, the “syncytia score (number 0-4, size S/M/L)” value ([6]; 3000 nanograms) was 1S and the “syncytia score (number 0-4, size S/M/L)” value ([7]; 12 nanograms) was 4 L. The “syncytia score (number 0-4, size S/M/L)” value ([7]; 24 nanograms) was 4 L, the “syncytia score (number 0-4, size S/M/L)” value ([7]; 47 nanograms) was 4 L and the “syncytia score (number 0-4, size S/M/L)” value ([7]; 94 nanograms) was 4 L. For the same compound, the “syncytia score (number 0-4, size S/M/L)” value ([7]; 188 nanograms) was 4 L, the “syncytia score (number 0-4, size S/M/L)” value ([7]; 375 nanograms) was 4 L and the “syncytia score (number 0-4, size S/M/L)” value ([7]; 750 nanograms) was 4 L. For the same compound, the “syncytia score (number 0-4, size S/M/L)” value ([7]; 1500 nanograms) was 3 M and the “syncytia score (number 0-4, size S/M/L)” value ([7]; 3000 nanograms) was 1S.
For “nonylphenoxypolyethoxyethanol [Nonoxynol-9]”, the “concentration effective against free virus” value [8] is listed as > 0.05 % (vol/vol).
